The results in this text go back to patent publication US9062037B2, “Tazarotene derivatives” (Stiefel Laboratories, Inc., priority 2009, dated 2015).

For series [1], the system named is Reconstructed human epidermis (RHE) tissues. As to the kind of experiment: RT-qPCR gene expression of K10, K19, filaggrin, K4 and K13 in reconstructed human epidermis (RHE) cultures. The settings on record: 72 h, 2.83 mM in OD/10% DMSO, 6 μl. It counts as cell-based. Here is the method:
Reconstructed human epidermis (RHE) tissues were cultured in-house as previously described by Poumay et al. Briefly, polycarbonate culture inserts (12 mm diameter and 0.4 μm pore size, Millipore) were filled with 150 μL of a suspension containing approximately 5×10^5 primary adult human keratinocytes. The inserts received another 500 μL of keratinocyte culture media and were placed in a 6-well plate (1 insert/well) containing 2.5 mL of RHE Growth Media (Epilife media +1.5 mM CaCl2). RHE cultures were incubated at 37° C. in a humidified atmosphere containing 5% CO2, for 24 hours. Subsequently (on Day 0), RHE cultures were exposed to the air-liquid interface by removing the RHE Growth Media from the top of the cultures, and replacing with 1.5 mL/well of RHE Growth Media containing 50 μg/mL vitamin C. Media was changed every other day until the cultures were dosed with Test Articles. A stock solution of 0.1% tazarotene (2.83 mM at 99.5% purity) in OD/10% DMSO was prepared. For tazarotene benzoate, hydroxytazarotenic acid, keto tazarotenic acid, keto tazarotene, and tazarotene nicotinate, a 10 mg/mL stock solution (in DMSO) was already prepared. From this stock solution, a 2.83 mM working solution (in octyldodecanol) was prepared. All other tested compounds were resuspended in DMSO and OD to obtain a final concentration of 2.83 mM in OD/10% DMSO. On Day 12, the cultures were placed in 60 mm petri dishes containing 3 mL of RHE Growth Media (+VitC). Test articles (6 μl) were applied to triplicate cultures and cultures were incubated at 37° C. for 72 hours. Untreated and OD alone served as negative controls. At the end of the incubation period, the growth media was collected and stored at −20° C. The tissues were cut in half: one half was placed in 10% NBF for histology, and the other half was placed in RNAlater™ solution for RT-qPCR. RNA was isolated and concentrations were determined using a NanoDrop spectrophotometer. In addition to using the same amount of RNA for each sample, data was normalized to internal GAPDH mRNA levels and is expressed as relative quantification (RQ) to untreated controls. RNA extracts from each replicate were amplified using RT-qPCR. The relative gene expression of five biomarkers was determined: Keratin 10, Keratin 19, Filaggrin, Keratin 4, and Keratin 13.
On the technique in general: Quantitative PCR measures a nucleic acid by following its amplification.

Series [2] in a line: Reaction with benzoyl peroxide (BPO) in solution. The note with it: at all three temperatures (35° C., room temperature, 5° C.); BPO 50-fold excess by weight. Format: physicochemical. The protocol:
The reaction of (i) tazarotene, tazarotene benzoate, hydroxy tazarotenic acid and tazarotene nicotinate with (ii) benzoyl peroxide (BPO) in 30% aqueous solutions was monitored at 35° C., room temperature and 5° C.
Individual solutions of each compound were prepared at approximately 0.25 mg/mL in acetonitrile:water (6:4 by volume). Reactions were initiated by mixing equal volumes of the test solution with an approximately 12 mg/mL solution of benzoyl peroxide (BPO) in acetonitrile:water (4:1 by volume). Therefore, the reaction solution contained approximately 0.125 mg/mL of the test compound and the BPO was at a 50-fold excess by weight (i.e. at the same ratio as a product containing 0.1% tazarotene and 5% BPO). Aliquots of the reaction solutions were stored at various temperatures protected from light.
Reactions were quenched by diluting 30 μL of the reaction solution to 50 mL with a diluent (acetonitrile:water in a ratio of 1:1 by volume) and storing the sample at 10° C. in the LC/MS sample tray or at 5° C. for storage. Duplicate samples were prepared at each time point (three at the start of the reaction) and the results were averaged together to generate a single value.
Samples were analyzed on a Waters Acquity UPLC with a Waters Xevo TQMS using an ESI source in the positive mode controlled by MassLynx V4.1 software. […]

Like-named read-outs stand apart in the source and are kept apart here.

For the compound `CCOC(=O)c1ccc(C#Cc2ccc3c(c2)C(C)(C)CC(OC(=O)c2cccnc2)S3)nc1` (stereo not shown) [Compound 7, 6-[4,4-Dimethyl-2-(pyridine-3-carbonyloxy)thiochroman-6-ylethynyl]nicotinic acid ethyl ester], the results for the fold induction at 2830 µM in series [1] (read-out: K4 Fold Change vs Untreated/OD controls (upregulation)), in series [1] (read-out: K13 Fold Change vs Untreated/OD controls (upregulation)) and in series [1] (read-out: K19 Fold Change vs Untreated/OD controls (upregulation)) were 23, 8 and 17, respectively. For the same compound, the “less reactive with BPO than tazarotene and hydroxy tazarotenic acid” value in series [2] is on record as about 25 times.
